# US8946413B2 (Pfizer Inc., priority 2008, dated 2015)
# Like-named read-outs stand apart in the source and are kept apart here.
# Molecular target: T1, CCR2 (Homo sapiens, UniProt P41597)
# T1 construct: (leukophoresis pack); host or cells: human peripheral blood mononuclear cells (PBMCs) from a normal human leukophoresis pack
# Experiment: hCCR2 (125-I hMCP-1) small molecule binding assay on human PBMCs
# Details: 125I-MCP-1, human PBMCs
# Text: The CCR2 antagonist activity of compounds of the invention can be reported as the inhibitor concentration required for 50% inhibition (IC50 values) of specific binding in receptor binding assays using 125I-labeled MCP-1, as ligand, and Peripheral Blood Mononuclear Cells (PBMCs) prepared from normal human whole blood via density gradient centrifugation. Specific binding is defined as the total binding (e.g., total cpm on filters) minus the non-specific binding. Non-specific binding is defined as the amount of cpm still defected in the presence of excess unlabeled competitor (e.g., MCP-1),
# Human PBMCs were used to test compounds of the invention in a binding assay. For example, 200,000 to 500,000 cells were incubated with 0.1 to 0.2 nM 125I-labeled MCP-1, with or without unlabeled competitor (10 nM MCP-1) or various concentrations of compounds to be tested. 125I-labeled MCP-1, were prepared by suitable methods or purchased from commercial vendors (Perkin Elmer, Boston Mass.). The binding reactions were performed in 50 to 250 μL of a binding buffer consisting of […] pH 7.2, and 0.1% BSA (bovine serum albumin), for 30 minutes at room temperature. The binding reactions were terminated by harvesting the membranes by rapid filtration through glass fiber filters (Perkin Elmer) which was presoaked in 0.3% polyethyleneimine or Phosphate Buffered Saline (PBS). The filters were rinsed with approximately 600 μL of binding buffer containing, 0.5 M NaCl or PBS, then dried, and the amount of bound radioactivity was determined by counting on a Gamma Counter (Perkin Elmer).
# More specifically, the following assay may be employed to determine IC50 values for the compounds of the present invention.
# hCCR2 (125-I hMCP-1) Small Molecule Binding Assay
# Normal human leukophoresis pack contents, available from Biological Specialty Corporation, Colmar, Pa., is diluted 1:1 with PBS, divided into 50 ml conical tubes (preferably less than 40 mls per tube), and underlayed with 10 mls of Ficoll-Paque PLUS (GE Healthcare 17-1440-02). The tubes are centrifuged at 2800 rpm in a clinical centrifuge at room temperature for 30 mins, with no brake. The plasma layer is suctioned, and the buffycoat layer is collected. The collected buffycoat layer is washed twice with 50 mls PBS, and centrifuged at 1400 rpm with brake. The cells are counted. The cells are then diluted to 1×10^7 cells per ml in binding buffer.
# 96 well plates (such as, for example, Millipore MultiScreen96 plates) are pre-wet with about 100 μl binding buffer (RPMI+0.1% BSA+20 mM HEPES), and blotted just prior to compound addition.
# 5 μl of 50 μM test compounds in 100% DMSO are dotted onto U-bottom polypropylene 96-well plates.
# 245 μl per well of Binding Buffer is added to each well for 1 μM compound concentration in 2% DMSO.
# 50 μl of 1 μM compound is transferred to pre-wetted Millipore plates. 50 μl per well of 1×10E7 cells per ml of freshly prepared human PBMCs are added.
# The samples are pre-incubated at room temperature for 30 minutes or 1 hour.
# 50 μl of 450 pM 125-I-hMCP-1 (Perkin-Elmer/NEN cat#NEX332025UC) is added for a final concentration 125-I-hMCP-1 of 150 pM per well.
# The final test compound concentration is 0.333 uM in 150 μl total volume with 0.67% DMSO in all wells. Controls for this assay consist of 0% inhibition and 100% inhibition with 1 uM hMCP-1 (saturating conditions). All wells are run in duplicate. Controls may be in replicates of eight.
# The samples are incubated at room temperature for 30 minutes.
# The buffer is suctioned through the Millipore plates. The plates are washed three times with Wash Buffer (PRMI+0.1% BSA+20 mM HEPES+ 0.4 M NaC).
# The plate underdrain is removed. The plate filters are allowed to dry. The filters are then punched out into plastic tubes.
# Finally, the sample is counted an a Gamma Counter.
# All IC50 plates were repeated for an n=2.
# The following table summarizes the IC50 values identified through the described assay.
# [1] = 30 min preincubation, read-out: IC50 (nM) 30 min preinc
# [2] = 1 hr preincubation, read-out: IC50 (nM) 1 hr preinc
# T1 sequence (P41597 whole entry): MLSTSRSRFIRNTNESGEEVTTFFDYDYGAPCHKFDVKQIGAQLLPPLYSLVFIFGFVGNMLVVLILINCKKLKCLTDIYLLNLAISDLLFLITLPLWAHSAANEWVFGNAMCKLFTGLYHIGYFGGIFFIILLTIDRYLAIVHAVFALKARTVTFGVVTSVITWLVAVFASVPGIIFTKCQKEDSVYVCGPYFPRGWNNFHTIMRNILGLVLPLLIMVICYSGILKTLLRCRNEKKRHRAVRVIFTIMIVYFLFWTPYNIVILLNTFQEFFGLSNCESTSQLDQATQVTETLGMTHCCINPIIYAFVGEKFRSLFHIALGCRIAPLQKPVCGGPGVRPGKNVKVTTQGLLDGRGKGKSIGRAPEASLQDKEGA
IC50 [1],IC50 [2],Compound
37.6 nM,8.5 nM,"CO[C@@H]1COCC[C@@H]1N[C@@H]1CC[C@@](C(=O)N2C[C@@H]3C[C@H]2CN3c2cc(C(F)(F)F)cnn2)(C(C)C)C1 [Example 18, 1,5-anhydro-2,3-dideoxy-3-{[(1R,3S)-3-isopropyl-3-({(1S,4S)-5-[5-(trifluoromethyl)pyridazin-3-yl]-2,5-diazabicyclo[2.2.1]hept-2-yl}carbonyl)cyclopentyl]amino}-4-O-methyl-D-erythro-pentitol]"
,3.1 nM,"CO[C@@H]1COCC[C@@H]1N[C@@H]1CC[C@@](C(=O)N2C[C@@H]3C[C@H]2CN3c2cc(C(F)(F)F)cc(C)n2)(C(C)C)C1 [Example 21, 1,5-anhydro-2,3-dideoxy-3-{[(1R,3S)-3-isopropyl-3-({(1S,4S)-5-[6-methyl-4-(trifluoromethyl)pyridin-2-yl]-2,5-diazabicyclo[2.2.1]hept-2-yl}carbonyl)cyclopentyl]amino}-4-O-methyl-D-erythro-pentitol]"
6.58 nM,0.93 nM,"CO[C@@H]1COCC[C@@H]1N[C@@H]1CC[C@](CC(F)F)(C(=O)N2C[C@@H]3C[C@H]2CN3c2cc(C(F)(F)F)ccn2)C1 [Example 25, 1,5-anhydro-2,3-dideoxy-3-{[(1R,3S)-3-(2,2-difluoroethyl)-3-({(1S,4S)-5-[4-(trifluoromethyl)pyridin-2-yl]-2,5-diazabicyclo[2.2.1]hept-2-yl}carbonyl)cyclopentyl]amino}-4-O-methyl-D-erythro-pentitol]"
16.2 nM,2.04 nM,"CO[C@@H]1COCC[C@@H]1N[C@@H]1CC[C@](CC(F)F)(C(=O)N2C[C@@H]3C[C@H]2CN3c2nccc(C(F)(F)F)n2)C1 [Example 27, 1,5-anhydro-2,3-dideoxy-3-{[(1R,3S)-3-(2,2-difluoroethyl)-3-({(1S,4S)-5-[4-(trifluoromethyl)pyrimidin-2-yl]-2,5-diazabicyclo[2.2.1]hept-2-yl}carbonyl)cyclopentyl]amino}-4-O-methyl-D-erythro-pentitol]"
,1.88 nM,"CO[C@@H]1COCC[C@@H]1N[C@@H]1CC[C@](CC(F)F)(C(=O)N2C[C@@H]3C[C@H]2CN3c2cccc(C(F)(F)F)n2)C1 [Example 28, 1,5-anhydro-2,3-dideoxy-3-{[(1R,3S)-3-(2,2-difluoroethyl)-3-({(1S,4S)-5-[6-(trifluoromethyl)pyridin-2-yl]-2,5-diazabicyclo[2.2.1]hept-2-yl}carbonyl)cyclopentyl]amino}-4-O-methyl-D-erythro-pentitol]"
,6.35 nM,"CO[C@@H]1COCC[C@@H]1N[C@@H]1CC[C@](CC(F)F)(C(=O)N2C[C@@H]3C[C@H]2CN3c2cc(C(F)(F)F)cnn2)C1 [Example 31, 1,5-anhydro-2,3-dideoxy-3-{[(1R,3S)-3-(2,2-difluoroethyl)-3-({(1S,4S)-5-[5-(trifluoromethyl)pyridazin-3-yl]-2,5-diazabicyclo[2.2.1]hept-2-yl}carbonyl)cyclopentyl]amino}-4-O-methyl-D-erythro-pentitol]"

# Continued, compound first:
Compound,IC50 [1],IC50 [2]
"CO[C@@H]1COCC[C@@H]1N[C@@H]1CC[C@@](C(=O)N2C[C@@H]3C[C@H]2CN3c2cc(C(F)(F)F)nc(C(F)(F)F)c2)(C(C)C)C1 [Example 19, 1,5-anhydro-3-{[(1R,3S)-3-isopropyl-3-({(1S,4S)-5-[2,6-bis(trifluoromethyl)pyridin-4-yl]-2,5-diazabicyclo[2.2.1]hept-2-yl}carbonyl)-3-isopropylcyclopentyl]amino}-2,3-dideoxy-4-O-methyl-D-erythro-pentitol]",20.4 nM,6.35 nM
"CO[C@@H]1COCC[C@@H]1N[C@@H]1CC[C@@](C(=O)N2C[C@@H]3C[C@H]2CN3c2nccc(C(F)(F)F)c2F)(C(C)C)C1 [Example 20, 1,5-anhydro-2,3-dideoxy-3-{[(1R,3S)-3-({(1S,4S)-5-[3-fluoro-4-(trifluoromethyl)pyridin-2-yl]-2,5-diazabicyclo[2.2.1]hept-2-yl}carbonyl)-3-isopropylcyclopentyl]amino}-4-O-methyl-D-erythro-pentitol]",8.59 nM,
"CO[C@@H]1COCC[C@@H]1N[C@@H]1CC[C@@](C(=O)N2C[C@@H]3C[C@H]2CN3c2cccc(C(F)(F)F)c2)(C(C)C)C1 [Example 22, 1,5-anhydro-2,3-dideoxy-3-{[(1R,3S)-3-isopropyl-3-({(1S,4S)-5-[3-(trifluoromethyl)phenyl]-2,5-diazabicyclo[2.2.1]hept-2-yl}carbonyl)cyclopentyl]amino}-4-O-methyl-D-erythro-pentitol]",,1.1 nM
"CO[C@@H]1COCC[C@@H]1N[C@@H]1CC[C@@](C(=O)N2C[C@@H]3C[C@H]2CN3c2cc(F)cc(C(F)(F)F)c2)(C(C)C)C1 [Example 23, 1,5-anhydro-2,3-dideoxy-3-{[(1R,3S)-3-({(1S,4S)-5-[3-fluoro-5-(trifluoromethyl)phenyl]-2,5-diazabicyclo[2.2.1]hept-2-yl}carbonyl)-3-isopropylcyclopentyl]amino}-4-O-methyl-D-erythro-pentitol]",,0.94 nM
"CO[C@@H]1COCC[C@@H]1N[C@@H]1CC[C@](CC(F)F)(C(=O)N2C[C@@H]3C[C@H]2CN3c2cc(C(F)(F)F)ncn2)C1 [Example 24, 1,5-anhydro-2,3-dideoxy-3-{[(1R,3S)-3-(2,2-difluoroethyl)-3-({(1S,4S)-5-[6-(trifluoromethyl)pyrimidin-4-yl]-2,5-diazabicyclo[2.2.1]hept-2-yl}carbonyl)cyclopentyl]amino}-4-O-methyl-D-erythro-pentitol]",79.7 nM,8.87 nM
"CO[C@@H]1COCC[C@@H]1N[C@@H]1CC[C@](CC(F)F)(C(=O)N2C[C@@H]3C[C@H]2CN3c2ccnc(C(F)(F)F)c2)C1 [Example 26, 1,5-anhydro-2,3-dideoxy-3-{[(1R,3S)-3-(2,2-difluoroethyl)-3-({(1S,4S)-5-[2-(trifluoromethyl)pyridin-4-yl]-2,5-diazabicyclo[2.2.1]hept-2-yl}carbonyl)cyclopentyl]amino}-4-O-methyl-D-erythro-pentitol]",29.3 nM,7.85 nM
"CO[C@@H]1COCC[C@@H]1N[C@@H]1CC[C@](CC(F)F)(C(=O)N2C[C@@H]3C[C@H]2CN3c2cncc(C(F)(F)F)n2)C1 [Example 29, 1,5-anhydro-2,3-dideoxy-3-{[(1R,3S)-3-(2,2-difluoroethyl)-3-({(1S,4S)-5-[6-(trifluoromethyl)pyrazin-2-yl]-2,5-diazabicyclo[2.2.1]hept-2-yl}carbonyl)cyclopentyl]amino}-4-O-methyl-D-erythro-pentitol]",,2.75 nM
"CO[C@@H]1COCC[C@@H]1N[C@@H]1CC[C@](CC(F)F)(C(=O)N2C[C@@H]3C[C@H]2CN3c2ccnc(C(F)(F)F)n2)C1 [Example 30, 1,5-anhydro-2,3-dideoxy-3-{[(1R,3S)-3-(2,2-difluoroethyl)-3-({(1S,4S)-5-[2-(trifluoromethyl)pyrimidin-4-yl]-2,5-diazabicyclo[2.2.1]hept-2-yl}carbonyl)cyclopentyl]amino}-4-O-methyl-D-erythro-pentitol]",32.9 nM,11.8 nM
"CO[C@@H]1COCC[C@@H]1N[C@@H]1CC[C@](CC(F)(F)F)(C(=O)N2C[C@@H]3C[C@H]2CN3c2cc(C(F)(F)F)ncn2)C1 [Example 32, 1,5-anhydro-2,3-dideoxy-4-O-methyl-3-{[(1R,3S)-3-(2,2,2-trifluoroethyl)-3-({(1S,4S)-5-[6-(trifluoromethyl)pyrimidin-4-yl]-2,5-diazabicyclo[2.2.1]hept-2-yl}carbonyl)cyclopentyl]amino}-D-erythro-pentitol]",13.8 nM,11.7 nM
